Source: article PMC6641592, “Deciphering Design Principles of Förster Resonance Energy Transfer-Based Protease Substrates: Thermolysin-Like Protease from Geobacillus stearothermophilus as a Test Case” (ACS Omega, 2018)
Like-named read-outs stand apart in the source and are kept apart here. AF647 = Alexa Fluor 647 (maleimide); CF = 5,6-carboxyfluorescein; Cy5 = Cy5 (maleimide)

Columns and labels:
[1] = target: TLP-ste (C288L/N181C) (Geobacillus stearothermophilus, UniProt P06874, C520L/N413C); settings: for Km / vmax: Michaelis-Menten fit, mean ± SD, triplicate; for vmax: MOPS pH 7.4, 10% DMSO; for kcat/KM: calculated from kcat and KM; for increase of kcat with peptide length: 8aa substrate relative to 4aa substrate with the same acceptor
[2] = after complete hydrolysis with 1 nM TLP-ste, >16 h room temperature; MOPS buffer, 10% DMSO; λex 450/λem 520 nm
[3] = target: TLP-ste (Geobacillus stearothermophilus, UniProt P06874, C520L/N413C); settings: product 0–20 μM; substrates 8aa-Cy5 and 8aa-AF647 0–2 μM; triplicate
[4] = test system: CC(C)C[C@H](NC(=O)CNC(=O)C=Cc1ccco1)C(N)=O; assay: purified protein, by the assay type; settings: other: enzyme preparation TLP-ste (C288L/N181C)
[5] = target: thermolysin-like protease (TLP-ste) from Geobacillus stearothermophilus, C288L/N181C (Geobacillus stearothermophilus)
[6] = corrected for IFE and FRET efficiency, 1 nM TLP-ste, 20 mM MOPS pH 7.4, 5 mM CaCl2, 10% DMSO, 30 °C, donor λex 490/λem 520 nm
[7] = corrected for IFE and FRET efficiency, 1 nM TLP-ste, 30 °C
[8] = corrected for IFE and FRET efficiency, vmax divided by enzyme concentration (1 nM)
[9] = correction: FRET efficiency only
[10] = correction: FRET efficiency only, vmax divided by enzyme concentration
[11] = correction: IFE only, vmax divided by enzyme concentration
[12] = correction: none, vmax divided by enzyme concentration

In the case of CF-PAGLAC(AF674)-NH2 [4aa-AF647], the Km [1, 6] is reported as 53.3 ± 33.9 µM, the vmax [1, 7] is reported as 7.0 ± 3.8 ×10^–4 μM s^–1 and the kcat [1, 8] is reported as 0.70 s^–1. It also gave a Km [1, 9] of 14.3 ± 4 µM, a kcat/KM [1, 9] of 14000 M⁻¹ s⁻¹ and a kcat [1, 10] of 0.20 s⁻¹. The kcat/KM ([1]; correction: IFE only) was 12900 M⁻¹ s⁻¹, the kcat [1, 11] was 0.69 s⁻¹ and the Km ([1]; correction: none) was 14.3 ± 4 µM. For the same molecule, the kcat/KM ([1]; correction: none) was 13200 M⁻¹ s⁻¹ and the kcat [1, 12] was 0.19 s⁻¹.

With CF-PAGLAC(Cy5)-NH2 [4aa-Cy5] the Km [1, 6] was 2.4 ± 1.9 µM, the vmax [1, 7] was 3.7 ± 1.6 ×10^–4 μM s^–1 and the kcat [1, 8] was 0.37 s^–1. It also gave a Km [1, 9] of 1.6 ± 1.3 µM, a kcat/KM [1, 9] of 175000 M⁻¹ s⁻¹ and a kcat [1, 10] of 0.28 s⁻¹. For the same molecule, the kcat/KM ([1]; correction: IFE only) was 145800 M⁻¹ s⁻¹, the kcat [1, 11] was 0.35 s⁻¹ and the Km ([1]; correction: none) was 1.6 ± 1.3 µM. For the same molecule, the kcat/KM ([1]; correction: none) was 162500 M⁻¹ s⁻¹, the kcat [1, 12] was 0.26 s⁻¹ and the “concentration of hydrolyzed peptide above which fluorescence plateaus or decreases (cleaved products form aggregates)” value [2] was 2500 nM.

For CF-PSVAGLAGGC(AF647)-NH2 [8aa-AF647], the “increase of kcat with peptide length” value [1] was 8 fold, the Km [1, 6] was 77.6 ± 38.5 µM and the vmax [1, 7] was 57.0 ± 27.0 ×10^–4 μM s^–1. It also gave a kcat [1, 8] of 5.70 s^–1, a Km [1, 9] of 17 ± 4.6 µM and a kcat/KM [1, 9] of 75900 M⁻¹ s⁻¹. For the same molecule, the kcat [1, 10] was 1.29 s⁻¹, the kcat/KM ([1]; correction: IFE only) was 70500 M⁻¹ s⁻¹ and the kcat [1, 11] was 5.47 s⁻¹. The Km ([1]; correction: none) was 17 ± 4.6 µM, the kcat/KM ([1]; correction: none) was 72900 M⁻¹ s⁻¹ and the kcat [1, 12] was 1.24 s⁻¹.

With CF-PSVAGLAGGC(Cy5)-NH2 [8aa-Cy5] the “increase of kcat with peptide length” value [1] was 21 fold, the Km [1, 6] was 17.6 ± 11.1 µM and the vmax [1, 7] was 78.2 ± 48.2 ×10^–4 μM s^–1. The kcat [1, 8] was 7.82 s^–1, the Km [1, 9] was 8.2 ± 3.9 µM and the kcat/KM [1, 9] was 454900 M⁻¹ s⁻¹. For the same molecule, the kcat [1, 10] was 3.73 s⁻¹, the kcat/KM ([1]; correction: IFE only) was 426100 M⁻¹ s⁻¹ and the kcat [1, 11] was 7.50 s⁻¹. It also gave a Km ([1]; correction: none) of 8.2 ± 3.9 µM, a kcat/KM ([1]; correction: none) of 436600 M⁻¹ s⁻¹ and a kcat [1, 12] of 3.58 s⁻¹.

With CF-PVAGLAGC(Cy5)-NH2 [6aa-Cy5] the Km [1, 6] was 11.6 ± 13 µM, the vmax [1, 7] was 29.6 ± 26.6 ×10^–4 μM s^–1 and the kcat [1, 8] was 2.96 s^–1. The Km [1, 9] was 6.9 ± 6.6 µM, the kcat/KM [1, 9] was 271000 M⁻¹ s⁻¹ and the kcat [1, 10] was 1.87 s⁻¹. It also gave a kcat/KM ([1]; correction: IFE only) of 247400 M⁻¹ s⁻¹, a kcat [1, 11] of 2.87 s⁻¹ and a Km ([1]; correction: none) of 6.9 ± 6.6 µM. For the same molecule, the kcat/KM ([1]; correction: none) was 262300 M⁻¹ s⁻¹, the kcat [1, 12] was 1.81 s⁻¹ and the “concentration of hydrolyzed peptide above which fluorescence plateaus or decreases (cleaved products form aggregates)” value [2] was 2500 nM.

For “H-LAGGC(AF647)-NH2 [AF647-carrying product]”, the “relative activity of TLP-ste in the presence of product” value [3] was “relative activity decreases”.

For “TLP-ste (C288L/N181C) (Geobacillus stearothermophilus; C520L/N413C)”, the Km [4] was 7000 µM and the kcat [4] was 14 s^–1.

With {CF}-PAGLAC(Cy5)-NH2 [4aa-Cy5, CF-PAGLAC(Cy5)-NH2] the KM of hydrolysis by 1 nM TLP-ste (Michaelis-Menten fit, donor fluorescence, corrected for IFE and FRET efficiency; 30 °C, MOPS pH 7.4, 10% DMSO) [5] was 2.4 μM.

Work on {CF}-PVAGLAGC(Cy5)-NH2 [6aa-Cy5, CF-PVAGLAGC(Cy5)-NH2] yielded a KM of hydrolysis by 1 nM TLP-ste (Michaelis-Menten fit, donor fluorescence, corrected for IFE and FRET efficiency; 30 °C, MOPS pH 7.4, 10% DMSO) [5] of 11.6 μM.

Molecule {CF}-PSVAGLAGGC(Cy5)-NH2 [8aa-Cy5, CF-…(Cy5)-NH2] has a KM of hydrolysis by 1 nM TLP-ste (Michaelis-Menten fit, donor fluorescence, corrected for IFE and FRET efficiency; 30 °C, MOPS pH 7.4, 10% DMSO) [5] of 17.6 μM.

With {CF}-PAGLAC(AF647)-NH2 [4aa-AF647, CF-PAGLAC(AF647)-NH2] the KM of hydrolysis by 1 nM TLP-ste (Michaelis-Menten fit, donor fluorescence, corrected for IFE and FRET efficiency; 30 °C, MOPS pH 7.4, 10% DMSO) [5] was 53.3 μM.

{CF}-PSVAGLAGGC(AF647)-NH2 [8aa-AF647, CF-…(AF647)-NH2] showed a KM of hydrolysis by 1 nM TLP-ste (Michaelis-Menten fit, donor fluorescence, corrected for IFE and FRET efficiency; 30 °C, MOPS pH 7.4, 10% DMSO) [5] of 77.6 μM.
